Reference: paper PMC6934184, “Selective DNA-PKcs inhibition extends the therapeutic index of localized radiotherapy and chemotherapy” (The Journal of Clinical Investigation, 2019)

Target: T1, MAP2K6 (MKK6) (Homo sapiens, UniProt P52564)
T1 construct: purchased Thermo Fisher Scientific (Life Technologies) SelectScreen
Assay: SelectScreen Z'LYTE
Assay type: biochemical
Details: ATP 100 µM
Method in brief: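 SelectScreen broad panel; activity (Z'LYTE, Adapta) plus binding formats. ATP: Km app for CSF1R Z'LYTE; 10 for CAMK1 Adapta. Readout = % per kinase.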

T1 sequence (P52564 whole entry): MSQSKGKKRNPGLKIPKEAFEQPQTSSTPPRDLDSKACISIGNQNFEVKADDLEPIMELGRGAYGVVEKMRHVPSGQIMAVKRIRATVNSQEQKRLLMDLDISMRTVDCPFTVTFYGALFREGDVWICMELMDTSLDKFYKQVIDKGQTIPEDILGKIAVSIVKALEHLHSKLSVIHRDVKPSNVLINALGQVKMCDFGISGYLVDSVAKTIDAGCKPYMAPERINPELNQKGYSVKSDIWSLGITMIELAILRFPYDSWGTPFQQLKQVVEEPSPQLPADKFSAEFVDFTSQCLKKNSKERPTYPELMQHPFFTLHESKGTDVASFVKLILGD

For `CN(C(=O)CN1CCOCC1)c1ccc2sc3c(-c4cccc5c(=O)cc(N6CC7CCC(C6)O7)oc45)cccc3c2c1` [NU5455], the inhibition at 1 µM was 1.8%.
